Test results reported in ChEMBL document CHEMBL1641539 (Bioorg Med Chem Lett, 2011).

How the values were obtained:
[1] = biological target: Mitogen-activated protein kinase 1 (Mus musculus) (UniProt P63085); test: Inhibition of mouse MAPK2 at 10 uM after 60 mins by TR-FRET assay; values are per cent of control
[2] = biological target: Dual specificity mitogen-activated protein kinase kinase 7 (Homo sapiens) (UniProt O14733); test: Inhibition of human MKK7beta at 10 uM after 60 mins by TR-FRET assay; conditions: values are per cent of control
[3] = biological target: Fibroblast growth factor receptor 3 (Homo sapiens) (UniProt P22607); test: Inhibition of human FGFR3 at 10 uM after 60 mins by TR-FRET assay; values are per cent of control
[4] = tested on: Platelet-derived growth factor receptor alpha (Homo sapiens), P16234 [V561D]; test: Inhibition of human PDGFRalpha V561D mutant at 10 uM after 60 mins by TR-FRET assay; values are per cent of control
[5] = biological target: Proto-oncogene tyrosine-protein kinase receptor Ret (Homo sapiens) (UniProt P07949); test: Inhibition of human Ret at 10 uM after 60 mins by TR-FRET assay; values are per cent of control
[6] = tested on: Fibroblast growth factor receptor 2 (Homo sapiens), P21802 [N549H]; test: Inhibition of human FGFR2 N549H mutant at 10 uM after 60 mins by TR-FRET assay; values are per cent of control
[7] = biological target: CDK9/cyclin T1 (Homo sapiens) (UniProt O60563+P50750); test: Inhibition of human CDK9/cyclin T1 at 10 uM after 60 mins by TR-FRET assay; values are per cent of control
[8] = tested on: Tyrosine-protein kinase BTK (Homo sapiens), Q06187 [R28H]; test: Inhibition of human BTK R28H mutant at 10 uM after 60 mins by TR-FRET assay; values are per cent of control
[9] = biological target: cAMP-dependent protein kinase catalytic subunit PRKX (Homo sapiens) (UniProt P51817); test: Inhibition of human PrKX at 10 uM after 60 mins by TR-FRET assay; values are per cent of control
[10] = biological target: Angiopoietin-1 receptor (Homo sapiens) (UniProt Q02763); test: Inhibition of human Tie2 at 10 uM after 60 mins by TR-FRET assay; values are per cent of control
[11] = biological target: Ribosomal protein S6 kinase alpha-3 (Homo sapiens) (UniProt P51812); test: Inhibition of human Rsk2 at 10 uM after 60 mins by TR-FRET assay; conditions: values are per cent of control
[12] = biological target: Mitogen-activated protein kinase 9 (Homo sapiens, UniProt P45984); conditions: 10 uM
Description: Inhibition of human JNK2alpha2 at 10 uM after 60 mins by TR-FRET assay

[13] = biological target: Ephrin type-B receptor 2 (Homo sapiens) (UniProt P29323); test: Inhibition of human EphB2 at 10 uM after 60 mins by TR-FRET assay; conditions: values are per cent of control
[14] = biological target: Calcium/calmodulin-dependent protein kinase type IV (Homo sapiens) (UniProt Q16566); test: Inhibition of human CaMK4 at 10 uM after 60 mins by TR-FRET assay; values are per cent of control
[15] = tested on: Epidermal growth factor receptor (Homo sapiens), P00533 [L861Q]; test: Inhibition of human EGFR L861Q mutant at 10 uM after 60 mins by TR-FRET assay; type: protein assay; conditions: values are per cent of control
[16] = tested on: Epidermal growth factor receptor (Homo sapiens), P00533 [T790M]; test: Inhibition of human EGFR T790M mutant at 10 uM after 60 mins by TR-FRET assay; type: protein assay; conditions: values are per cent of control
[17] = biological target: Testis-specific serine/threonine-protein kinase 1 (Homo sapiens) (UniProt Q9BXA7); test: Inhibition of human TSSK1 at 10 uM after 60 mins by TR-FRET assay; values are per cent of control
[18] = biological target: Mitogen-activated protein kinase kinase kinase 9 (Homo sapiens) (UniProt P80192); test: Inhibition of human MLK1 at 10 uM after 60 mins by TR-FRET assay; values are per cent of control
[19] = biological target: Serine/threonine-protein kinase ULK3 (Homo sapiens) (UniProt Q6PHR2); test: Inhibition of human ULK3 at 10 uM after 60 mins by TR-FRET assay; conditions: values are per cent of control
[20] = biological target: Ribosomal protein S6 kinase alpha-6 (Homo sapiens) (UniProt Q9UK32); test: Inhibition of human Rsk4 at 10 uM after 60 mins by TR-FRET assay; conditions: values are per cent of control
[21] = biological target: Misshapen-like kinase 1 (Homo sapiens) (UniProt Q8N4C8); test: Inhibition of human MINK at 10 uM after 60 mins by TR-FRET assay; values are per cent of control
[22] = tested on: Mast/stem cell growth factor receptor Kit (Homo sapiens), P10721 [D816H]; test: Inhibition of human c-Kit D816H mutant at 10 uM after 60 mins by TR-FRET assay; values are per cent of control
[23] = biological target: Mitogen-activated protein kinase 10 (Homo sapiens, UniProt P53779); test: Inhibition of human JNK3 at 10 uM after 60 mins by TR-FRET assay; values are per cent of control
[24] = biological target: MAP kinase-activated protein kinase 5 (Homo sapiens) (UniProt Q8IW41); test: Residual activity of human PRAK at 10 uM after 60 mins by TR-FRET assay
[25] = biological target: Ribosomal protein S6 kinase beta-1 (Homo sapiens) (UniProt P23443); test: Inhibition of human p70S6K at 10 uM after 60 mins by TR-FRET assay; values are per cent of control
[26] = biological target: Serine/threonine-protein kinase VRK2 (Homo sapiens) (UniProt Q86Y07); test: Inhibition of human VRK2 at 10 uM after 60 mins by TR-FRET assay; values are per cent of control
[27] = biological target: Tyrosine-protein kinase Lyn (Mus musculus) (UniProt P25911); test: Inhibition of mouse Lyn at 10 uM after 60 mins by TR-FRET assay; values are per cent of control
[28] = biological target: Ephrin type-A receptor 1 (Homo sapiens) (UniProt P21709); test: Inhibition of human EphA1 at 10 uM after 60 mins by TR-FRET assay; values are per cent of control
[29] = biological target: Death-associated protein kinase 1 (Homo sapiens) (UniProt P53355); test: Inhibition of human DAPK1 at 10 uM after 60 mins by TR-FRET assay; values are per cent of control

Sequence of Ephrin type-B receptor 2 (Homo sapiens) (P29323 whole entry): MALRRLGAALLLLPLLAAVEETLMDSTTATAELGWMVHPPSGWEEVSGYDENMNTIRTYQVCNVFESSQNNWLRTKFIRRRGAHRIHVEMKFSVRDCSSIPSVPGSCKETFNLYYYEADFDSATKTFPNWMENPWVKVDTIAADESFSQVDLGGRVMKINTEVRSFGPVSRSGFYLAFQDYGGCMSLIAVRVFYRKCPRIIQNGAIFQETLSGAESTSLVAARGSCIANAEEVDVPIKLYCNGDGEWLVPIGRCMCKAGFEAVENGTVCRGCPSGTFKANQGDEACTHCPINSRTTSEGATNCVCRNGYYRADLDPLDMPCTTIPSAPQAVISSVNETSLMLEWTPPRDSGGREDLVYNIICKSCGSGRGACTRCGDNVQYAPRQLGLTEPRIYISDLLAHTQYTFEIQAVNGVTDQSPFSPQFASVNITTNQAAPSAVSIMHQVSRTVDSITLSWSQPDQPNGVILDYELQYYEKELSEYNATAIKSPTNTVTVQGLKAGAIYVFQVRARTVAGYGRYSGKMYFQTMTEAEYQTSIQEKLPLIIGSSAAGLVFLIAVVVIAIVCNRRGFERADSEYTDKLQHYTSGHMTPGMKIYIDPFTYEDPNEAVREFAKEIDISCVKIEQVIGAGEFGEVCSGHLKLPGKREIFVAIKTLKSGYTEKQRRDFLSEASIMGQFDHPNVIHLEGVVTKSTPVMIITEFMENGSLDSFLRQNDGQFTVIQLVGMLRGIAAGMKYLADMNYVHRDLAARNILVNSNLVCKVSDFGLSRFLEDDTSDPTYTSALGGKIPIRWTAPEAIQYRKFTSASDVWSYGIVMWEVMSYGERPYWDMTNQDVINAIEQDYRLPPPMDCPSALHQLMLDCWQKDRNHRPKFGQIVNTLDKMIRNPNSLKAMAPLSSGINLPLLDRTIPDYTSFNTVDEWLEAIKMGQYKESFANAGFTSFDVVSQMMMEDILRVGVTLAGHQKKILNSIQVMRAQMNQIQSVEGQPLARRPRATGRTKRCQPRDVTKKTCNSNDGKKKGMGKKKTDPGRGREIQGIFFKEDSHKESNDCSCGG
Sequence of Calcium/calmodulin-dependent protein kinase type IV (Homo sapiens) (Q16566 whole entry): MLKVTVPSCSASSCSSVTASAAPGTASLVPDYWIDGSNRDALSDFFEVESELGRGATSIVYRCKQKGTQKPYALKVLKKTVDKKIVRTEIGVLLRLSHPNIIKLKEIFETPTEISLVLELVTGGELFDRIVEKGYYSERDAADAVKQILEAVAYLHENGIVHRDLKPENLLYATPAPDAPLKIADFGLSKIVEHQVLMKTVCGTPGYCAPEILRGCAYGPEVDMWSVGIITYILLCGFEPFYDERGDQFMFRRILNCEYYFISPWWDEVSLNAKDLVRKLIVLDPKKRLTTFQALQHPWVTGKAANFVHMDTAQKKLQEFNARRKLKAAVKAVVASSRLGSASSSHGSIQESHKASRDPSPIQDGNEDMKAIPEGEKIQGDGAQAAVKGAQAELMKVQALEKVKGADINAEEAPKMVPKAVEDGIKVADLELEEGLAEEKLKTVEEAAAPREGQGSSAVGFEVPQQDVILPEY
Sequence of Angiopoietin-1 receptor (Homo sapiens) (Q02763 whole entry): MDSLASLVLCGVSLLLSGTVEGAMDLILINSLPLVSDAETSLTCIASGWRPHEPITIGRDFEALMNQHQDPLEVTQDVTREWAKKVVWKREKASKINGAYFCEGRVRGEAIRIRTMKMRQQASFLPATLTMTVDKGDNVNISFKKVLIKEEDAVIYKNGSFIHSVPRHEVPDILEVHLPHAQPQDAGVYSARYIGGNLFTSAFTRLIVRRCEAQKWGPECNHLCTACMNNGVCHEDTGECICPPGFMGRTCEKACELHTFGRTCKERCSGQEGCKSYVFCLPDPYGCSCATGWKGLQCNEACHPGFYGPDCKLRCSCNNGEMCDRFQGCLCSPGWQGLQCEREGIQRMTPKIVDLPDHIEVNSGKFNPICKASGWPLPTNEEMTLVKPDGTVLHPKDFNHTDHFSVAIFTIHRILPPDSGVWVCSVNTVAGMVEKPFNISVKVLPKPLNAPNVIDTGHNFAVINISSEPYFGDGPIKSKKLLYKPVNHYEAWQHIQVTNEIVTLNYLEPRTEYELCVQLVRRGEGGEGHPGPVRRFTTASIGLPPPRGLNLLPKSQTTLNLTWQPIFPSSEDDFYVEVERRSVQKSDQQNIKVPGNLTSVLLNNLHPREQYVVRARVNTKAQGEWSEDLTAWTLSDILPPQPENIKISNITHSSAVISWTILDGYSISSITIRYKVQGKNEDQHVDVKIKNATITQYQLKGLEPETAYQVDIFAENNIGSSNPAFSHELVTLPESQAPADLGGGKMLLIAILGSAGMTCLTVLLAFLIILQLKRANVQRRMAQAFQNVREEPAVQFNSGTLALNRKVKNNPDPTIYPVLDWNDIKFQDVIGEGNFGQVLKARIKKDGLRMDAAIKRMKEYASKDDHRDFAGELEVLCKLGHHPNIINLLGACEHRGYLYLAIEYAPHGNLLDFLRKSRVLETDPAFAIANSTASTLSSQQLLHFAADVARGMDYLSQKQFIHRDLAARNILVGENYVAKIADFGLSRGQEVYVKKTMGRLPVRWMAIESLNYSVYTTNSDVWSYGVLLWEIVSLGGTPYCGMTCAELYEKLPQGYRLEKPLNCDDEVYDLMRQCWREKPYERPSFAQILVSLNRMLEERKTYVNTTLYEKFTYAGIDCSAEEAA
Sequence of Mast/stem cell growth factor receptor Kit (Homo sapiens), P10721 [D816H] (P10721 whole entry D816H): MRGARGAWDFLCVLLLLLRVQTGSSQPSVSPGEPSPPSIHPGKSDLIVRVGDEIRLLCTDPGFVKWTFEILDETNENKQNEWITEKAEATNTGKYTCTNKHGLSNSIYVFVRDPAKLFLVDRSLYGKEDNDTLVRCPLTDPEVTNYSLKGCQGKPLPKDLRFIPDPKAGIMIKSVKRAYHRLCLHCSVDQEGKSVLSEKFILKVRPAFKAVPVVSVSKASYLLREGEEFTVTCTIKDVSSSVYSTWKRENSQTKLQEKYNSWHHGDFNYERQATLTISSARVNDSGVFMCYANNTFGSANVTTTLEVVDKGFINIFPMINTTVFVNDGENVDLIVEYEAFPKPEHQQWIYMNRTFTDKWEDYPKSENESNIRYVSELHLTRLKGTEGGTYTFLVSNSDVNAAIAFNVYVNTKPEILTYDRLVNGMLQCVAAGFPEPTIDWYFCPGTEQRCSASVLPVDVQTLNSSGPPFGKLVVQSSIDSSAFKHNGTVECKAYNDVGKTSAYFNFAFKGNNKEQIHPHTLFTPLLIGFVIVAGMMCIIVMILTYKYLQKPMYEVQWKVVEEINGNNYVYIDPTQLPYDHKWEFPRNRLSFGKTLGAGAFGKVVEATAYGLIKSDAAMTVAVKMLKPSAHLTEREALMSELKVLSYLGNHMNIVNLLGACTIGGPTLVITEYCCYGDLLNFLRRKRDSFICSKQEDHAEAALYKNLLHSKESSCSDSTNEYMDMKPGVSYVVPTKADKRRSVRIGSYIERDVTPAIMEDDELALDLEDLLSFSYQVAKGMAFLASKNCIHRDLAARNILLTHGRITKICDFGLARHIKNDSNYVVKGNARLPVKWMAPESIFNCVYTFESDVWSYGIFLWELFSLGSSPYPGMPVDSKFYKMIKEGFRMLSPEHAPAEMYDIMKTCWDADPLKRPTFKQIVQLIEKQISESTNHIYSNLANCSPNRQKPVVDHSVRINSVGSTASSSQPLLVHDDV
Sequence of Ribosomal protein S6 kinase beta-1 (Homo sapiens) (P23443 whole entry, looked up): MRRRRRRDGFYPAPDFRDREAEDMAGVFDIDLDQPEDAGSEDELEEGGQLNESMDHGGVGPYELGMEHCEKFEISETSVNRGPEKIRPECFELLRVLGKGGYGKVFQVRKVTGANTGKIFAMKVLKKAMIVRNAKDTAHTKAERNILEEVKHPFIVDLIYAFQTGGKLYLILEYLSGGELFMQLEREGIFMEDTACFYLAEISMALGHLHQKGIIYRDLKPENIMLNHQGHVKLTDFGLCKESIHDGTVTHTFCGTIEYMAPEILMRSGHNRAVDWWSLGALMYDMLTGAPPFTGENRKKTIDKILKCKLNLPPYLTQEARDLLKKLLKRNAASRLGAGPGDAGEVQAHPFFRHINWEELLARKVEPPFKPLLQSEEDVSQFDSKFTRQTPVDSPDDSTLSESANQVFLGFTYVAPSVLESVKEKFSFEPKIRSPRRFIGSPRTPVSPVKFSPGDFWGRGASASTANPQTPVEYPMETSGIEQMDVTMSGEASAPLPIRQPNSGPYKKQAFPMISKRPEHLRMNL
Sequence of Ribosomal protein S6 kinase alpha-3 (Homo sapiens) (P51812 whole entry): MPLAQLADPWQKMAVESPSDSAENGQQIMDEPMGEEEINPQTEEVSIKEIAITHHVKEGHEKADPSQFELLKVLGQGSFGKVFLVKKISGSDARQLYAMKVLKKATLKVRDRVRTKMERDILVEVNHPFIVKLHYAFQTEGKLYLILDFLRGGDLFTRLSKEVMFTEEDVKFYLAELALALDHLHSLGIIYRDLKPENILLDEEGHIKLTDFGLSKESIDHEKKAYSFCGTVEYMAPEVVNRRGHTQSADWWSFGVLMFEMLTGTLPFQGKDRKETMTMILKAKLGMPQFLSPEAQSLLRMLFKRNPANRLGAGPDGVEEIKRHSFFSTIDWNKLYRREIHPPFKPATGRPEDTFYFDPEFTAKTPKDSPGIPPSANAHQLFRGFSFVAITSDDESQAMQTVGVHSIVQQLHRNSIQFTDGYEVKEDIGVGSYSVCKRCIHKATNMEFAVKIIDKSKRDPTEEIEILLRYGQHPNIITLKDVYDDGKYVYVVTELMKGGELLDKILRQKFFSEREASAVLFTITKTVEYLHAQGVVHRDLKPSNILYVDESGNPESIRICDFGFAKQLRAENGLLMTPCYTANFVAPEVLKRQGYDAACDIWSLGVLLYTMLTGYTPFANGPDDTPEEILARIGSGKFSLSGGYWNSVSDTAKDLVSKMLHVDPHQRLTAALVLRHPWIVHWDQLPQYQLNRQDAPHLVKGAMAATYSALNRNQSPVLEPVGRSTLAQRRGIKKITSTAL

residual activity [1]: 114%
residual activity [2]: 126%
residual activity [3]: 109%
residual activity [4]: 107%
residual activity [5]: 108%
residual activity [6]: 91%
residual activity [7]: 110%
residual activity [8]: 113%
residual activity [9]: 134%
residual activity [10]: 103%
residual activity [11]: 98%
inhibition [12]: 88%
residual activity [13]: 105%
residual activity [14]: 112%
residual activity [15]: 64%
residual activity [16]: 98%
residual activity [17]: 111%
residual activity [18]: 109%
residual activity [19]: 107%
residual activity [20]: 109%
residual activity [21]: 80%
residual activity [22]: 114%
residual activity [23]: 4%
residual activity [24]: 119%
residual activity [25]: 102%
residual activity [26]: 122%
residual activity [27]: 100%
residual activity [28]: 103%
Compound: S=c1[nH]nc(-c2ccncc2)n1-c1ccc2ccccc2c1
residual activity [29]: 108%
